Measurements from ChEMBL document CHEMBL1817586, “N-(1,3-Diaryl-3-oxopropyl)amides as a new template for xanthine oxidase inhibitors” (Bioorg Med Chem, 2011).

How the values were obtained:
Mus musculus [1] = test: Antihyperuricemic activity in Swiss mouse assessed as decrease of potassium oxonate-induced uric acid level in serum at 10 mg/kg, ip after 3 hrs by HPLC analysis (reference value: 7.80 +/- 0.34 uM); type: functional; conditions: route intraperitoneal
Mus musculus [2] = test: Antihyperuricemic activity in Swiss mouse assessed as decrease of potassium oxonate-induced uric acid level in serum at 20 mg/kg, ip after 3 hrs by HPLC analysis (reference value: 7.80 +/- 0.34 uM); type: functional; conditions: route intraperitoneal
Mus musculus [3] = test: Antihyperuricemic activity in Swiss mouse assessed as decrease of potassium oxonate-induced uric acid level in serum at 50 mg/kg, ip after 3 hrs by HPLC analysis (reference value: 7.80 +/- 0.34 uM); type: functional; conditions: route intraperitoneal
[4] = target: Xanthine dehydrogenase/oxidase (Bos taurus, UniProt P80457); test: Inhibition of bovine milk xanthine oxidase assessed as decrease of uric acid formation preincubated for 5 mins by UV-visible spectrophotometric analysis
Xanthine dehydrogenase/oxidase, sequence (P80457 whole entry): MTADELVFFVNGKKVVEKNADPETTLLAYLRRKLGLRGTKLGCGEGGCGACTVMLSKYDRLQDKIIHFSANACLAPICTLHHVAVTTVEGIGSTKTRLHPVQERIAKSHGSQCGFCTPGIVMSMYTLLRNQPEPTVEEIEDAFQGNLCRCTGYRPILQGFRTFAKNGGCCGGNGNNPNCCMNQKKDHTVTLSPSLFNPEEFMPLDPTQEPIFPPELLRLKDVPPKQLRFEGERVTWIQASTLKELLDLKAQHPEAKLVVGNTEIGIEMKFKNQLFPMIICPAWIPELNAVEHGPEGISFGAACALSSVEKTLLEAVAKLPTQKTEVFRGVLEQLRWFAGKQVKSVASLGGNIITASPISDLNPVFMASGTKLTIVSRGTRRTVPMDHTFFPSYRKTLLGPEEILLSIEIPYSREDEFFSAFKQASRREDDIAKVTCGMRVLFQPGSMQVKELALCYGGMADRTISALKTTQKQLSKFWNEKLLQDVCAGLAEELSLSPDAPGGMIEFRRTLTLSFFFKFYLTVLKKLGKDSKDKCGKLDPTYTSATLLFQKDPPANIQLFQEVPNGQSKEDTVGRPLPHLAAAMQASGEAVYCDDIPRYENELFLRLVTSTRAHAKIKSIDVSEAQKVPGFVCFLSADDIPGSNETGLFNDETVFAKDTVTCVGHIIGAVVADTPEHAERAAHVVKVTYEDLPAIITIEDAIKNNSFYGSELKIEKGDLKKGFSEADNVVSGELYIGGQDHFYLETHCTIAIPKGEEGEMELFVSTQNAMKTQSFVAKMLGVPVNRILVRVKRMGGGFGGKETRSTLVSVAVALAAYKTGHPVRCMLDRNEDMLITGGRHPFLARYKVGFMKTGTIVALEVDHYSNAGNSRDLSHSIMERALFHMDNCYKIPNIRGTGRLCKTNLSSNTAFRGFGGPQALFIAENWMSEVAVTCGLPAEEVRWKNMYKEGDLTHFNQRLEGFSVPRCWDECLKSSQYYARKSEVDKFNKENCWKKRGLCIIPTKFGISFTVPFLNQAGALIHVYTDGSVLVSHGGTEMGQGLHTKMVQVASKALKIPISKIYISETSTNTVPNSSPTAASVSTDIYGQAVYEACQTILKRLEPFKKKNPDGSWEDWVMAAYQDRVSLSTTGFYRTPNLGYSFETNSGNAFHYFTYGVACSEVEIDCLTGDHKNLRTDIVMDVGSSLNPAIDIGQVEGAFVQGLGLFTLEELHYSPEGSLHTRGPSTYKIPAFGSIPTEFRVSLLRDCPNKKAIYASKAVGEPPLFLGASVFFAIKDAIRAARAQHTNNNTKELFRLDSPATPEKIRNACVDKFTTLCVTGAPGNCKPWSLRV

Row | SMILES | IC50 [4] | further results
1 | Oc1ncnc2[nH]ncc12 [ALLOPURINOL] | – | Activity (Mus musculus [1]): 3.19 µM; Activity (Mus musculus [2]): 2.93 µM; Activity (Mus musculus [3]): 2.17 µM
2 | COc1ccc(C(CC(=O)c2ccccc2)NC(C)=O)c(OC)c1OC (centres undefined) | 46.1 µM | –
3 | C[N+](=O)C(CC(=O)c1ccccc1)c1c2ccccc2cc2ccccc12 (centres undefined) | 91.6 µM | –
4 | CC(=O)NC(CC(=O)c1ccc(Cl)cc1)c1ccc(Cl)cc1 (centres undefined) | 41 µM | –
5 | O=C(CC(NC(=O)c1ccccc1)c1cccc([N+](=O)[O-])c1)c1ccccc1 (centres undefined) | 43.6 µM | –
6 | CC(=O)NC(CC(=O)c1ccccc1)c1ccco1 (centres undefined) | 63 µM | –
7 | CC(=O)NC(/C=C/c1ccccc1)CC(=O)c1ccccc1 (centres undefined) | 78.3 µM | –
8 | COc1ccc(C(CC(=O)c2ccccc2)NC(C)=O)cc1 (centres undefined) | 45 µM | –
9 | CC(=O)NC(CC(=O)c1cccc2ccccc12)c1cccc([N+](=O)[O-])c1 (centres undefined) | 44 µM | –
10 | CC(=O)NC(CC(=O)c1cccs1)c1ccccc1 (centres undefined) | 27 µM | –
11 | CC(=O)NC(CC(=O)c1ccco1)c1ccccc1 (centres undefined) | 26 µM | –
12 | CC(=O)NC(CC(=O)c1ccc2ccccc2c1)c1cccc(Br)c1 (centres undefined) | 2.45 µM | Activity (Mus musculus [1]): 3.21 µM; Activity (Mus musculus [2]): 2.96 µM; Activity (Mus musculus [3]): 2.18 µM
13 | CC(=O)NC(CC(=O)c1cc(Cl)cs1)c1ccc(Cl)cc1 (centres undefined) | 22 µM | –
14 | CC(=O)NC(CC(=O)c1ccc([N+](=O)[O-])cc1)c1ccccc1 (centres undefined) | 48 µM | –
15 | CC(=O)NC(CC(=O)c1ccccc1)c1ccc2ccccc2c1 (centres undefined) | 53 µM | –
16 | CC(=O)Nc1cccc(C(=O)CC(NC(C)=O)c2ccc(Cl)cc2)c1 (centres undefined) | 41.8 µM | –
17 | O=C(CC(NC(=O)c1ccccc1)c1ccccc1)c1ccccc1 (centres undefined) | 58.1 µM | –
18 | CC(=O)NC(CC(=O)c1ccc2ccccc2c1)c1ccccc1 (centres undefined) | 8.5 µM | Activity (Mus musculus [1]): 4.26 µM; Activity (Mus musculus [2]): 4.22 µM; Activity (Mus musculus [3]): 4.14 µM
19 | COc1ccc(C(CC(=O)c2ccc([N+](=O)[O-])cc2)NC(C)=O)cc1 (centres undefined) | 52.6 µM | –
20 | CC(=O)NC(CC(=O)c1ccccc1)c1ccccc1[N+](=O)[O-] (centres undefined) | 32.3 µM | –
21 | CC(=O)NC(CC(=O)c1cc(C)sc1C)c1ccc(Cl)cc1 (centres undefined) | 21.7 µM | –
22 | CC(=O)Nc1cccc(C(=O)CC(/C=C/c2ccccc2)NC(C)=O)c1 (centres undefined) | 69.2 µM | –

Row | SMILES | IC50 [4] | further results
23 | COc1ccc(OC)c(C(CC(=O)c2cc(Cl)cs2)NC(C)=O)c1 (centres undefined) | 20 µM | –
24 | COc1cc(C(CC(=O)c2ccccc2)NC(C)=O)cc(OC)c1OC (centres undefined) | 48.2 µM | –
25 | CC(=O)NC(CC(=O)c1ccccc1)c1cccs1 (centres undefined) | 65 µM | –
26 | CC(=O)NC(CC(=O)c1ccccc1)c1cccc2ccccc12 (centres undefined) | 59 µM | –
27 | CC(=O)NC(CC(=O)c1ccco1)c1cccc([N+](=O)[O-])c1 (centres undefined) | 15.2 µM | Activity (Mus musculus [1]): 7.13 µM; Activity (Mus musculus [2]): 7.01 µM; Activity (Mus musculus [3]): 6.98 µM
28 | CC(=O)NC(CC(=O)c1cccc2ccccc12)c1cccc(Br)c1 (centres undefined) | 42.2 µM | –
29 | CC(=O)NC(CC(=O)c1ccc(Cl)cc1)c1ccccc1 (centres undefined) | 42 µM | –
30 | CC(=O)Nc1cccc(C(=O)CC(NC(C)=O)c2cccc([N+](=O)[O-])c2)c1 (centres undefined) | 32 µM | –
31 | CC(=O)NC(CC(=O)c1ccccc1)c1ccc([N+](=O)[O-])cc1 (centres undefined) | 28.5 µM | –
32 | CC(=O)NC(CC(=O)c1cccc2ccccc12)c1ccccc1 (centres undefined) | 40 µM | –
33 | CC(=O)NC(CC(=O)c1ccccc1)c1ccccc1 (centres undefined) | 38.3 µM | –
34 | CC(=O)NC(CC(=O)c1ccccc1)c1ccc(Cl)cc1 (centres undefined) | 27.1 µM | –
35 | CC(=O)NC(CC(=O)c1ccccc1)c1cccc(Br)c1 (centres undefined) | 28.1 µM | –
36 | CC(=O)NC(CC(=O)c1cc(C)sc1C)c1cccc([N+](=O)[O-])c1 (centres undefined) | 19.8 µM | –
37 | CC(=O)NC(CC(=O)c1ccccc1)c1ccc(C#N)cc1 (centres undefined) | 29 µM | –
38 | CC(=O)NC(CC(=O)c1ccccc1)c1cccc([N+](=O)[O-])c1 (centres undefined) | 26.2 µM | –
39 | CC(=O)NC(CC(=O)c1ccc(Cl)cc1)c1ccc(C)cc1 (centres undefined) | 44.6 µM | –
40 | CC(=O)NC(CC(=O)c1ccc([N+](=O)[O-])cc1)c1ccc(Cl)cc1 (centres undefined) | 45.4 µM | –
41 | COc1ccc(OC)c(C(CC(=O)c2cccc(NC(C)=O)c2)NC(C)=O)c1 (centres undefined) | 43.2 µM | –
42 | COc1ccc(OC)c(C(CC(=O)c2ccccc2)NC(C)=O)c1 (centres undefined) | 44 µM | –
43 | COc1ccc(C(CC(=O)c2ccccc2)NC(C)=O)cc1OC (centres undefined) | 44.3 µM | –
